These are literature values, as cited in patent US20090099154A1, “Pharmaceutical Sustained Release Compositions and Processes Thereof” (PANACEA BIOTEC LTD., priority 2005, published 2009).

Data set [1] has as its system HSV-2-infected cells. To be noted: HSV-2-infected cells cultured in vitro.
Data set [2] concerns HSV-1-infected cells. The conditions noted are these: HSV-1-infected cells cultured in vitro.
Data set [3] relates to VZV-infected cells. The conditions noted are these: VZV-infected cells cultured in vitro.

Turning to Penciclovir triphosphate, the intracellular half-life in data set [1] was 20 h; in data set [2], 10 h; in data set [3], 7 h.
